Data published in US20260356856A1, “KRAS G12S AND G12C INHIBITORS” (MIRATI THERAPEUTICS, INC., priority 2023, published 2026).

Columns and labels:
KRas G12C = target: T1, KRas G12C (Homo sapiens, UniProt P01116, G12C); assay: KRas binding assay, TR-FRET displacement of Cy5 labelled tracer; conditions: 60-minute incubation at room temperature, 1% DMSO, pH 7.5
T1 construct: Biotinylated KRas (corresponding to amino acids 1-169, produced at Accelegan Inc.); biotin (biotinylated); purchased Accelegan Inc
T1 sequence (P01116 1-169 isoform P01116-2 G12C): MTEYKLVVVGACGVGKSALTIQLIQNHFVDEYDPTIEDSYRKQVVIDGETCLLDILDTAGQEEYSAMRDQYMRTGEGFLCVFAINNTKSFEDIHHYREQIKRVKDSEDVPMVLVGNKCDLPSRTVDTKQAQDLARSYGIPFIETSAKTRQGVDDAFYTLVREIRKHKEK
How it was run: (§1)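 Biotinylated KRas (aa 1-169) incubated with Cy5-labelled tracer, terbium streptavidin and compound (1% DMSO final) in 50 mM HEPES pH 7.5, 5 mM MgCl2, 0.005% Tween-20, 1 mM DTT. Tracer displacement read by TR-FRET after 60 min at room temperature; POC values fitted to 4-parameter IC50 equation.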

KRas G12S = target: T2, KRas G12S (Homo sapiens, UniProt P01116, G12S); assay: as above; conditions: 60-minute incubation at room temperature, 1% DMSO, pH 7.5
T2 construct: Biotinylated KRas (corresponding to amino acids 1-169, produced at Accelegan Inc.); biotin (biotinylated); purchased Accelegan Inc
T2 sequence (P01116 1-169 isoform P01116-2 G12S): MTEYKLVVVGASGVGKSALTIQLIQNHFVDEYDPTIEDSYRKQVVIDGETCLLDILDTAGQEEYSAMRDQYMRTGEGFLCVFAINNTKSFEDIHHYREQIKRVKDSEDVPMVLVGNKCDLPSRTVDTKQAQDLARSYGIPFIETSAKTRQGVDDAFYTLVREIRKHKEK
How it was run: as §1

KRas WT = target: T3, KRas WT (Homo sapiens, UniProt P01116); assay: as above; conditions: 60-minute incubation at room temperature, 1% DMSO, pH 7.5
T3 construct: Biotinylated KRas (corresponding to amino acids 1-169, produced at Accelegan Inc.); biotin (biotinylated); purchased Accelegan Inc
T3 sequence (P01116 1-169 isoform P01116-2): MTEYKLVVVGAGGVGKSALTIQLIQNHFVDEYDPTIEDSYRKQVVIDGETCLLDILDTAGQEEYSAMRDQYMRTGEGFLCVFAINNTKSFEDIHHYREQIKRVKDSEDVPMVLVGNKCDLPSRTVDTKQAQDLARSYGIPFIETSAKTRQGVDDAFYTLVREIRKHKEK
How it was run: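 Truncated KRas (1-169), biotinylated, Tb-streptavidin donor; one-hour room-temperature incubation; IC50 by four-parameter curve fitting.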

[1] = target: T4, KRas-mediated phosphorylation of ERK in MKN1 cells (Homo sapiens, UniProt P01116); assay: Inhibition of KRas-mediated phosphorylation of ERK (HTRF), MKN1 cells; type: cell-based; conditions: MKN1 cells (KRas WT); HTRF pERK; 3 h incubation
T4 construct: pERK HTRF read-out
T4 sequence (P01116 1-188 isoform P01116-2): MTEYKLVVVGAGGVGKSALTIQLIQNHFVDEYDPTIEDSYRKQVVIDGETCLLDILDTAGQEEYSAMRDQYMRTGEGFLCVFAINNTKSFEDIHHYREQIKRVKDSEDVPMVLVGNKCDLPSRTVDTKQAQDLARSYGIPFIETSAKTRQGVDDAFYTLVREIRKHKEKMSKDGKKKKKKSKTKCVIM
Experimental: Inhibition of KRas Phosphorylation of ERK (HTRF) by Exemplary Compounds of Formula (Ia) or (Ib)
Cisbio HTRF Advanced pERK Assay Catalog #64AERPEH • Cells: MKN1, PSN1 • Procedure: • 1. Day 1: Seed 6,000 cells/well −25 μl/well in 384-well white solid bottom plate; RPM1_10% FBS. Incubate overnight at 37 °C/5% CO2. • 2.

[2] = target: T5, KRas-mediated phosphorylation of ERK in A549 cells (Homo sapiens, UniProt P01116, G12S); assay: Inhibition of KRas-mediated phosphorylation of ERK (HTRF), A549 cells; type: cell-based; conditions: HTRF pERK, 3 h incubation
T5 construct: pERK HTRF read-out
T5 sequence (P01116 1-188 isoform P01116-2 G12S): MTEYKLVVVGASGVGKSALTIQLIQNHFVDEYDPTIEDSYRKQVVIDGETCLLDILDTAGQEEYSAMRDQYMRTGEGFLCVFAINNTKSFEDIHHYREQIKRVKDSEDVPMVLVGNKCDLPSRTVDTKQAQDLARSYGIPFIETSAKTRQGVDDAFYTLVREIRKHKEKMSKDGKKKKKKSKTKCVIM

[3] = target: T6, KRas-mediated phosphorylation of ERK in H358 cells (Homo sapiens, UniProt P01116, G12C); assay: Inhibition of KRas-mediated phosphorylation of ERK (HTRF), H358 cells; type: cell-based; conditions: HTRF pERK, 3 h incubation
T6 construct: pERK HTRF read-out
T6 sequence (P01116 1-188 isoform P01116-2 G12C): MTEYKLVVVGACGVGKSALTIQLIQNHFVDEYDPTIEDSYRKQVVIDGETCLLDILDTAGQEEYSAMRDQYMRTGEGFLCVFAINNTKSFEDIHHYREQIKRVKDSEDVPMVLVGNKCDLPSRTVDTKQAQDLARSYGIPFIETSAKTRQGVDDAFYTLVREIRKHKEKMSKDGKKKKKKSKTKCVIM

Row | SMILES | IC50 (KRas G12C) [nM] | IC50 (KRas G12S) [nM] | IC50 (KRas WT) [nM] | IC50 [1] [nM] | IC50 [2] [nM] | IC50 [3] [nM]
1 | N#Cc1c(N)sc2c(F)ccc(-c3c(Cl)cc4c(N5CCN(C(=O)n6nccn6)CC5)nc(OC[C@@]56CCCN5C[C@H](F)C6)nc4c3F)c12 [Example 191, 4-(4-(4-(2H-1,2,3-triazole-2-carbonyl)piperazin-1-yl)-6-chloro-8-fluoro-2-(((2R,7aS)-2-fluorotetrahydro-1H-pyrrolizin-7a(5H)-yl)methoxy)quinazolin-7-yl)-2-amino-7-fluorobenzo[b]thiophene-3-carbonitrile] | < 2 | 7 | 6 | 15 | 290 | 1
2 | CCc1c(F)ccc2cc(O)cc(N3CCc4c(nc(OC[C@@]56CCCN5C[C@H](F)C6)nc4N4CCCCCC(C(=O)n5ccc(C)n5)C4)C3)c12 (stereo partly drawn) [Example 192, (1-(7-(8-ethyl-7-fluoro-3-hydroxynaphthalen-1-yl)-2-(((2R,7aS)-2-fluorotetrahydro-1H-pyrrolizin-7a(5H)-yl)methoxy)-5,6,7,8-tetrahydropyrido[3,4-d]pyrimidin-4-yl)azocan-3-yl)(3-methyl-1H-pyrazol-1-yl)methanone] | 27 | 35 | 23 | 105 | 4250 | 160
3 | CCc1c(F)ccc2cc(O)cc(N3CCc4c(nc(OC[C@@]56CCCN5C[C@H](F)C6)nc4NCCC(=O)n4ccc(C)n4)C3)c12 [Example 195, 3-((7-(8-ethyl-7-fluoro-3-hydroxynaphthalen-1-yl)-2-(((2R,7aS)-2-fluorotetrahydro-1H-pyrrolizin-7a(5H)-yl)methoxy)-5,6,7,8-tetrahydropyrido[3,4-d]pyrimidin-4-yl)amino)-1-(3-methyl-1H-pyrazol-1-yl) propan-1-one] | 13 | 6 | 43 | 936 | 84 | 1170
4 | CN(CCCC(=O)Oc1cccc(F)c1)c1nc(OC[C@@]23CCCN2C[C@H](F)C3)nc2c(F)c(-c3ccc(F)c4sc(N)c(C#N)c34)c(Cl)cc12 [Example 198, 3-fluorophenyl 4-((7-(2-amino-3-cyano-7-fluorobenzo[b]thiophen-4-yl)-6-chloro-8-fluoro-2-(((2R,7aS)-2-fluorotetrahydro-1H-pyrrolizin-7a(5H)-yl)methoxy)quinazolin-4-yl)(methyl)amino)butanoate] | 2 | 14 | 77 | 159 | 489 | 28
5 | Cc1ccn(C(=O)CCCCN(C)c2nc(OC[C@@]34CCCN3C[C@H](F)C4)nc3c(F)c(-c4ccc(F)c5sc(N)c(C#N)c45)c(Cl)cc23)n1 [Example 199, 2-amino-4-(6-chloro-8-fluoro-2-(((2R,7aS)-2-fluorotetrahydro-1H-pyrrolizin-7a(5H)-yl)methoxy)-4-(methyl(5-(3-methyl-1H-pyrazol-1-yl)-5-oxopentyl)amino)quinazolin-7-yl)-7-fluorobenzo[b]thiophene-3-carbonitrile] | 17 | 27 | 26 | 236 | 4320 | 432
6 | CN(CCCC(=O)N(C)c1ccccn1)c1nc(OC[C@@]23CCCN2C[C@H](F)C3)nc2c(F)c(-c3ccc(F)c4sc(N)c(C#N)c34)c(Cl)cc12 [Example 200, 4-((7-(2-amino-3-cyano-7-fluorobenzo[b]thiophen-4-yl)-6-chloro-8-fluoro-2-(((2R,7aS)-2-fluorotetrahydro-1H-pyrrolizin-7a(5H)-yl)methoxy)quinazolin-4-yl)(methyl)amino)-N-methyl-N-(pyridin-2-yl) butanamide] | 2 | 4 | 5 | 86 | 729 | 112
7 | CN(CCCC(=O)Nc1cccnc1)c1nc(OC[C@@]23CCCN2C[C@H](F)C3)nc2c(F)c(-c3ccc(F)c4sc(N)c(C#N)c34)c(Cl)cc12 [Example 201, 4-((7-(2-amino-3-cyano-7-fluorobenzo[b]thiophen-4-yl)-6-chloro-8-fluoro-2-(((2R,7aS)-2-fluorotetrahydro-1H-pyrrolizin-7a(5H)-yl)methoxy)quinazolin-4-yl)(methyl)amino)-N-(pyridin-3-yl)butanamide] | 4 | 5 | 6 | 251 | 1570 | 373
8 | CN(CCCC(=O)Oc1ccccc1)c1nc(OC[C@@]23CCCN2C[C@H](F)C3)nc2c(F)c(-c3ccc(F)c4sc(N)c(C#N)c34)c(Cl)cc12 [Example 204, phenyl 4-((7-(2-amino-3-cyano-7-fluorobenzo[b]thiophen-4-yl)-6-chloro-8-fluoro-2-(((2R,7aS)-2-fluorotetrahydro-1H-pyrrolizin-7a(5H)-yl)methoxy)quinazolin-4-yl)(methyl)amino)butanoate] | < 2 | 13 | 38 | 230 | 351 | 17
9 | CN(C)Cc1ccn(C(=O)C2CCCN(c3nc(OC[C@@]45CCCN4C[C@H](F)C5)nc4c(F)c(-c5ccc(F)c6sc(N)c(C#N)c56)c(Cl)cc34)CC2)n1 (stereo partly drawn) [Example 205, 2-amino-4-(6-chloro-4-(4-(3-((dimethylamino)methyl)-1H-pyrazole-1-carbonyl)azepan-1-yl)-8-fluoro-2-(((2R,7aS)-2-fluorotetrahydro-1H-pyrrolizin-7a(5H)-yl)methoxy)quinazolin-7-yl)-7-fluorobenzo[b]thiophene-3-carbonitrile] | 2 | 4 | 7 | 540 | 25 | 59
10 | CC(C)C(=O)N(C)C(=O)C1CCN(c2nc(OC[C@@]34CCCN3C[C@H](F)C4)nc3c(F)c(-c4ccc(F)c5sc(N)c(C#N)c45)c(Cl)cc23)CC1 [Example 206, 1-(7-(2-amino-3-cyano-7-fluorobenzo[b]thiophen-4-yl)-6-chloro-8-fluoro-2-(((2R,7aS)-2-fluorotetrahydro-1H-pyrrolizin-7a(5H)-yl)methoxy)quinazolin-4-yl)-N-isobutyryl-N-methylpiperidine-4-carboxamide] | 7 | 9 | 8 | 26 | 82 | 31
11 | CCc1c(F)ccc2cc(O)cc(-c3ncc4c(N5CCC(C(=O)N(C)C(=O)COC)CC5)nc(OC[C@@]56CCCN5C[C@H](F)C6)nc4c3F)c12 [Example 209, 1-(7-(8-ethyl-7-fluoro-3-hydroxynaphthalen-1-yl)-8-fluoro-2-(((2R,7aS)-2-fluorotetrahydro-1H-pyrrolizin-7a(5H)-yl)methoxy)pyrido[4,3-d]pyrimidin-4-yl)-N-(2-methoxyacetyl)-N-methylpiperidine-4-carboxamide] | 168 | 165 | 496 | 1110 | 281 | 1460
